# Test results as given in patent US10781224B2, “Bis(oxymethyl)phosphinic acid and biogenic metal salts thereof as regulators of plant growth and development” (priority 2016, dated 2020).
# Several values for one entry are separate records, joined by “and”; a condition that tells them apart may be missing. Identical values can stand only once.
# Assays:
# [1] = system: winter wheat (Vershin variety); assay: Winter wheat seed treatment with BHMPA salts: germinating power (length and mass of roots and sprouts); assay type: in vivo
# Experimental: (§1) Experimental versions—soaking seeds in BHMPA solutions and solutions of BHMPA Ca, Mg, Na, Co, Mn, Cu, and Zn salts at 1·10^−6-1·10^−12% concentrations (doses). The studies were conducted in laboratory in Petri dishes; seed bed—two layers of filter paper. 50 seeds soaked in water (control) and in the solutions of the tested compounds (experimental) were placed into each dish. Wheat, corn, and rice seeds were exposed for one hour.
# (§2) Seed germination energy and rate were calculated in percent as an arithmetic mean of the four experimental results (germination energy on the 4th day, wheat germination on the 8th day, rice and corn germination—on the 7th day). Germination was determined based on the germinating power indicators (length of the roots and sprouts and their wet and dry mass per 100 shoots).
# (§3) The effect of pre-sowing seed treatment with the claimed BHMPA salts of biogenic metals was studied on winter wheat (Vershin variety), corn (Krasnodar 385 MV variety), and rice (Diamant variety).
# The above data describe the seed viability only at the initial stage of germination, while the germination ability at the later stage of germination is defined by the initial germinating power. The method for the determination of the germinating power comprises measuring the height of the sprouts and primary roots, as well as the biomass and the dry mass thereof per 100 seedlings. [M. A. Kartuzova. Initial Germinating Power as Method of Biological Assessment of Seed Quality. Selection and Seed Farming, #2, 1953].
# rice (Diamant variety) = assay: Rice seed treatment with BHMPA salts: germination energy and germination rate; assay type: in vivo; settings: for Germination energy / Germination rate: rice
# Experimental: Control—Soaking Seeds in Water;
# as §1
# Analysis was conducted according to the government standards GOST 12038-84 “Crop seeds. Technical conditions for determining the germination energy and germination rate”, GOST 12044-93 “Crop seeds. Methods for determining disease contamination.”
# as §2, §3
# [2] = comparative study, 1·10^−9% solution
# [3] = rice seed treatment, solution 1 · 10^−10%
# [4] = comparative study vs Melaphen, 1·10^−8% solution
substance,measurement,setting,value
Copper BHMPA Salt [Cu-salt],effectiveness on germinating power,[1]; 1·10^−6% and 1·10^−12% solutions,weren't effective
same,"Length, root",[1]; 1·10^−6% solution,4.6 cm
same,"Length, root, + % to control",[1]; 1·10^−6% solution,−4%
same,"Length, sprout",[1]; 1·10^−6% solution,3.8 cm
same,"Length, sprout, + % to control",[1]; 1·10^−6% solution,−5%
same,"Mass, dry, root",[1]; 1·10^−6% solution,0.41 g/100 plantlings
same,"Mass, dry, root, + % to control",[1]; 1·10^−6% solution,−2%
same,"Mass, dry, sprout",[1]; 1·10^−6% solution,0.35 g/100 plantlings
same,"Mass, dry, sprout, + % to control",[1]; 1·10^−6% solution,−5%
same,"Mass, wet, root",[1]; 1·10^−6% solution,2.61 g/100 plantlings
same,"Mass, wet, root, + % to control",[1]; 1·10^−6% solution,−7%
same,"Mass, wet, sprout",[1]; 1·10^−6% solution,2.70 g/100 plantlings
same,"Mass, wet, sprout, + % to control",[1]; 1·10^−6% solution,1.5%
same,"Length, root",[1]; 1·10^−7% solution,4.9 cm
same,"Length, root, + % to control",[1]; 1·10^−7% solution,2%
same,"Length, sprout",[1]; 1·10^−7% solution,4.0 cm
same,"Length, sprout, + % to control",[1]; 1·10^−7% solution,0%
same,"Mass, dry, root",[1]; 1·10^−7% solution,0.44 g/100 plantlings
same,"Mass, dry, root, + % to control",[1]; 1·10^−7% solution,2%
same,"Mass, dry, sprout",[1]; 1·10^−7% solution,0.40 g/100 plantlings
same,"Mass, dry, sprout, + % to control",[1]; 1·10^−7% solution,8%
same,"Mass, wet, root",[1]; 1·10^−7% solution,3.35 g/100 plantlings
same,"Mass, wet, root, + % to control",[1]; 1·10^−7% solution,19%
same,"Mass, wet, sprout",[1]; 1·10^−7% solution,3.05 g/100 plantlings
same,"Mass, wet, sprout, + % to control",[1]; 1·10^−7% solution,15%
same,"Length, root",[1]; 1·10^−8% solution,5.1 cm
same,"Length, root, + % to control",[1]; 1·10^−8% solution,6%
same,"Length, sprout",[1]; 1·10^−8% solution,4.1 cm
same,"Length, sprout, + % to control",[1]; 1·10^−8% solution,2.5%
same,"Mass, dry, root",[1]; 1·10^−8% solution,0.47 g/100 plantlings
same,"Mass, dry, root, + % to control",[1]; 1·10^−8% solution,9%
same,"Mass, dry, sprout",[1]; 1·10^−8% solution,0.46 g/100 plantlings
same,"Mass, dry, sprout, + % to control",[1]; 1·10^−8% solution,24%
same,"Mass, wet, root",[1]; 1·10^−8% solution,3.68 g/100 plantlings
same,"Mass, wet, root, + % to control",[1]; 1·10^−8% solution,31%
same,"Mass, wet, sprout",[1]; 1·10^−8% solution,3.22 g/100 plantlings
same,"Mass, wet, sprout, + % to control",[1]; 1·10^−8% solution,21%
same,"Length, root",[1]; 1·10^−9% solution,5.6 cm
same,"Length, root, + % to control",[1]; 1·10^−9% solution,17%
same,"Length, sprout",[1]; 1·10^−9% solution,4.7 cm
same,"Length, sprout, + % to control",[1]; 1·10^−9% solution,17% and 17.5%
same,"Mass, dry, root",[1]; 1·10^−9% solution,0.60 g/100 plantlings
same,"Mass, dry, root, + % to control",[1]; 1·10^−9% solution,39.5%
same,"Mass, dry, sprout",[1]; 1·10^−9% solution,0.50 g/100 plantlings
same,"Mass, dry, sprout, + % to control",[1]; 1·10^−9% solution,35%
same,"Mass, wet, root",[1]; 1·10^−9% solution,4.13 g/100 plantlings
same,"Mass, wet, root, + % to control",[1]; 1·10^−9% solution,47%
same,"Mass, wet, sprout",[1]; 1·10^−9% solution,3.61 g/100 plantlings
same,"Mass, wet, sprout, + % to control",[1]; 1·10^−9% solution,36%
same,"Length, root",[1]; 1·10^−10% solution,5.3 cm
same,"Length, root, + % to control",[1]; 1·10^−10% solution,10%
same,"Length, sprout",[1]; 1·10^−10% solution,4.4 cm
same,"Length, sprout, + % to control",[1]; 1·10^−10% solution,10%
same,"Mass, dry, root",[1]; 1·10^−10% solution,0.49 g/100 plantlings
same,"Mass, dry, root, + % to control",[1]; 1·10^−10% solution,14%
same,"Mass, dry, sprout",[1]; 1·10^−10% solution,0.48 g/100 plantlings
same,"Mass, dry, sprout, + % to control",[1]; 1·10^−10% solution,30%
same,"Mass, wet, root",[1]; 1·10^−10% solution,3.75 g/100 plantlings
same,"Mass, wet, root, + % to control",[1]; 1·10^−10% solution,33.5%
same,"Mass, wet, sprout",[1]; 1·10^−10% solution,3.34 g/100 plantlings
same,"Mass, wet, sprout, + % to control",[1]; 1·10^−10% solution,25.5%
same,"Length, root",[1]; 1·10^−11% solution,5.1 cm
same,"Length, root, + % to control",[1]; 1·10^−11% solution,6%
same,"Length, sprout",[1]; 1·10^−11% solution,4.1 cm
same,"Length, sprout, + % to control",[1]; 1·10^−11% solution,2.5%
same,"Mass, dry, root",[1]; 1·10^−11% solution,0.46 g/100 plantlings
same,"Mass, dry, root, + % to control",[1]; 1·10^−11% solution,7%
same,"Mass, dry, sprout",[1]; 1·10^−11% solution,0.46 g/100 plantlings
same,"Mass, dry, sprout, + % to control",[1]; 1·10^−11% solution,24%
same,"Mass, wet, root",[1]; 1·10^−11% solution,3.44 g/100 plantlings
same,"Mass, wet, root, + % to control",[1]; 1·10^−11% solution,11%
same,"Mass, wet, sprout",[1]; 1·10^−11% solution,3.20 g/100 plantlings
same,"Mass, wet, sprout, + % to control",[1]; 1·10^−11% solution,20%
same,"Length, root",[1]; 1·10^−12% solution,4.8 cm
same,"Length, root, + % to control",[1]; 1·10^−12% solution,0%
same,"Length, sprout",[1]; 1·10^−12% solution,4.0 cm
same,"Length, sprout, + % to control",[1]; 1·10^−12% solution,0%
same,"Mass, dry, root",[1]; 1·10^−12% solution,0.41 g/100 plantlings
same,"Mass, dry, root, + % to control",[1]; 1·10^−12% solution,−2%
same,"Mass, dry, sprout",[1]; 1·10^−12% solution,0.42 g/100 plantlings
same,"Mass, dry, sprout, + % to control",[1]; 1·10^−12% solution,13.5%
same,"Mass, wet, root",[1]; 1·10^−12% solution,3.01 g/100 plantlings
same,"Mass, wet, root, + % to control",[1]; 1·10^−12% solution,7%
same,"Mass, wet, sprout",[1]; 1·10^−12% solution,2.92 g/100 plantlings
same,"Mass, wet, sprout, + % to control",[1]; 1·10^−12% solution,10%
same,"Length, root",[1]; [2],10.9 cm
same,"Length, root, + % to control",[1]; [2],25%
same,"Length, sprout",[1]; [2],7.2 cm
same,"Length, sprout, + % to control",[1]; [2],16%
same,"Mass, dry, root",[1]; [2],0.67 g/100 plantlings
same,"Mass, dry, root, + % to control",[1]; [2],8%
same,"Mass, dry, sprout",[1]; [2],0.59 g/100 plantlings
same,"Mass, dry, sprout, + % to control",[1]; [2],16%
same,"Mass, wet, root",[1]; [2],5.45 g/100 plantlings
same,"Mass, wet, root, + % to control",[1]; [2],51%
same,"Mass, wet, sprout",[1]; [2],5.00 g/100 plantlings
same,"Mass, wet, sprout, + % to control",[1]; [2],26%
same,"Germination energy, %",rice (Diamant variety); [3],88.0%
same,"Germination rate, %",rice (Diamant variety); [3],96.0%
same,Germination energy,rice (Diamant variety); 1·10^−6% solution,81.7%
same,Germination rate,rice (Diamant variety); 1·10^−6% solution,88.3%
same,Germination energy,rice (Diamant variety); 1·10^−7% solution,84.3%
same,Germination rate,rice (Diamant variety); 1·10^−7% solution,90.0%
same,Germination energy,rice (Diamant variety); 1·10^−8% solution,85.7%
same,Germination rate,rice (Diamant variety); 1·10^−8% solution,92.0%
same,Germination energy,rice (Diamant variety); 1·10^−9% solution,87.7%
same,Germination rate,rice (Diamant variety); 1·10^−9% solution,94.0%
same,Germination energy,rice (Diamant variety); 1·10^−10% solution,84.7%
same,Germination rate,rice (Diamant variety); 1·10^−10% solution,96.7%
same,Germination energy,"rice (Diamant variety); 1·10^−10% solution, listed as Cu",88.7%
same,Germination energy,rice (Diamant variety); 1·10^−11% solution,85.7%
same,Germination rate,rice (Diamant variety); 1·10^−11% solution,94.3%
same,Germination energy,rice (Diamant variety); 1·10^−12% solution,82.0%
same,Germination rate,rice (Diamant variety); 1·10^−12% solution,87.7%
same,Germination energy,rice (Diamant variety); [4],88.0%
same,Germination rate,rice (Diamant variety); [4],96.0%
